Laboratory results taken from ChEMBL document CHEMBL4665624, “Synthesis of 5-(4-(1H-phenanthro[9,10-d]imidazol-2-yl)benzylidene)thiazolidine-2,4-dione as promising DNA and serum albumin-binding agents and evaluation of antitumor activity” (Eur J Med Chem, 2019).

Columns and labels:
SN12C = assay: Antitumor activity against human SN12C cells assessed as cell growth inhibition at 10 uM incubated for 48 hrs by sulforhodamine B assay; type: functional; details: read-out: GI
NCI-H23 = assay: Antitumor activity against human NCI-H23 cells assessed as cell growth inhibition at 10 uM incubated for 48 hrs by sulforhodamine B assay; type: functional; details: read-out: GI
UACC-62 = assay: Antitumor activity against human UACC-62 cells assessed as cell growth inhibition at 10 uM incubated for 48 hrs by sulforhodamine B assay; type: functional; details: read-out: GI
OVCAR-3 = assay: Antitumor activity against human OVCAR-3 cells assessed as cell growth inhibition at 10 uM incubated for 48 hrs by sulforhodamine B assay; type: functional; details: read-out: GI
K562 = assay: Antitumor activity against human K562 cells assessed as cell growth inhibition at 10 uM incubated for 48 hrs by sulforhodamine B assay; type: functional; details: read-out: GI
Hs-578T = assay: Antitumor activity against human HS 578T cells assessed as cell growth inhibition at 10 uM incubated for 48 hrs by sulforhodamine B assay; type: functional; details: read-out: GI
M14 = assay: Antitumor activity against human M14 cells assessed as cell growth inhibition at 10 uM incubated for 48 hrs by sulforhodamine B assay; type: functional; details: read-out: GI
MOLT-4 = assay: Antitumor activity against human MOLT4 cells assessed as cell growth inhibition at 10 uM incubated for 48 hrs by sulforhodamine B assay; type: functional; details: read-out: GI
SF-295 = assay: Antitumor activity against human SF295 cells assessed as cell growth inhibition at 10 uM incubated for 48 hrs by sulforhodamine B assay; type: functional; details: read-out: GI
SF-268 = assay: Antitumor activity against human SF268 cells assessed as cell growth inhibition at 10 uM incubated for 48 hrs by sulforhodamine B assay; type: functional; details: read-out: GI
MDA-MB-435 = assay: Antitumor activity against human MDA-MB-435 cells assessed as cell growth inhibition at 10 uM incubated for 48 hrs by sulforhodamine B assay; type: functional; details: read-out: GI
ACHN = assay: Antitumor activity against human ACHN cells assessed as cell growth inhibition at 10 uM incubated for 48 hrs by sulforhodamine B assay; type: functional; details: read-out: GI
KM12 = assay: Antitumor activity against human KM12 cells assessed as cell growth inhibition at 10 uM incubated for 48 hrs by sulforhodamine B assay; type: functional; details: read-out: GI
HT-29 = assay: Antitumor activity against human HT-29 cells assessed as cell growth inhibition at 10 uM incubated for 48 hrs by sulforhodamine B assay; type: functional; details: read-out: GI
HCT-15 = assay: Antitumor activity against human HCT15 cells assessed as cell growth inhibition at 10 uM incubated for 48 hrs by sulforhodamine B assay; type: functional; details: read-out: GI
CCRF-CEM = assay: Antitumor activity against human CCRF-CEM cells assessed as cell growth inhibition at 10 uM incubated for 48 hrs by sulforhodamine B assay; type: functional; details: read-out: GI
MDA-MB-231 = assay: Antitumor activity against human MDA-MB-231/ATCC cells assessed as cell growth inhibition at 10 uM incubated for 48 hrs by sulforhodamine B assay; type: functional; details: read-out: GI
IGROV-1 = assay: Antitumor activity against human IGROV1 cells assessed as cell growth inhibition at 10 uM incubated for 48 hrs by sulforhodamine B assay; type: functional; details: read-out: GI
HOP-92 = assay: Antitumor activity against human HOP92 cells assessed as cell growth inhibition at 10 uM incubated for 48 hrs by sulforhodamine B assay; type: functional; details: read-out: GI
HCC 2998 = assay: Antitumor activity against human HCC2998 cells assessed as cell growth inhibition at 10 uM incubated for 48 hrs by sulforhodamine B assay; type: functional; details: read-out: GI
RXF 393 = assay: Antitumor activity against human RXF 393 cells assessed as cell growth inhibition at 10 uM incubated for 48 hrs by sulforhodamine B assay; type: functional; details: read-out: GI
786-0 = assay: Antitumor activity against human 786-0 cells assessed as cell growth inhibition at 10 uM incubated for 48 hrs by sulforhodamine B assay; type: functional; details: read-out: GI
HCT-116 = assay: Antitumor activity against human HCT116 cells assessed as cell growth inhibition at 10 uM incubated for 48 hrs by sulforhodamine B assay; type: functional; details: read-out: GI
EKVX = assay: Antitumor activity against human EKVX cells assessed as cell growth inhibition at 10 uM incubated for 48 hrs by sulforhodamine B assay; type: functional; details: read-out: GI
SR = assay: Antitumor activity against human SR cells assessed as cell growth inhibition at 10 uM incubated for 48 hrs by sulforhodamine B assay; type: functional; details: read-out: GI
A498 = assay: Antitumor activity against human A498 cells assessed as cell growth inhibition at 10 uM incubated for 48 hrs by sulforhodamine B assay; type: functional; details: read-out: GI
UO-31 = assay: Antitumor activity against human UO-31 cells assessed as cell growth inhibition at 10 uM incubated for 48 hrs by sulforhodamine B assay; type: functional; details: read-out: GI
MDA-MB-468 = assay: Antitumor activity against human MDA-MB-468 cells assessed as cell growth inhibition at 10 uM incubated for 48 hrs by sulforhodamine B assay; type: functional; details: read-out: GI
MCF7 = assay: Antitumor activity against human MCF7 cells assessed as cell growth inhibition at 10 uM incubated for 48 hrs by sulforhodamine B assay; type: functional; details: read-out: GI
OVCAR-8 = assay: Antitumor activity against human OVCAR-8 cells assessed as cell growth inhibition at 10 uM incubated for 48 hrs by sulforhodamine B assay; type: functional; details: read-out: GI
U-251 = assay: Antitumor activity against human U251 cells assessed as cell growth inhibition at 10 uM incubated for 48 hrs by sulforhodamine B assay; type: functional; details: read-out: GI
Malme-3M = assay: Antitumor activity against human MALME-3M cells assessed as cell growth inhibition at 10 uM incubated for 48 hrs by sulforhodamine B assay; type: functional; details: read-out: GI
OVCAR-4 = assay: Antitumor activity against human OVCAR-4 cells assessed as cell growth inhibition at 10 uM incubated for 48 hrs by sulforhodamine B assay; type: functional; details: read-out: GI
NCI-H460 = assay: Antitumor activity against human NCI-H460 assessed as cell growth inhibition at 10 uM incubated for 48 hrs by sulforhodamine B assay; type: functional; details: read-out: GI
SNB-75 = assay: Antitumor activity against human SNB-75 cells assessed as cell growth inhibition at 10 uM incubated for 48 hrs by sulforhodamine B assay; type: functional; details: read-out: GI
RPMI-8226 = assay: Antitumor activity against human RPMI8226 cells assessed as cell growth inhibition at 10 uM incubated for 48 hrs by sulforhodamine B assay; type: functional; details: read-out: GI
SNB-19 = assay: Antitumor activity against human SNB-19 cells assessed as cell growth inhibition at 10 uM incubated for 48 hrs by sulforhodamine B assay; type: functional; details: read-out: GI
LOX IMVI = assay: Antitumor activity against human LOX IMVI cells assessed as cell growth inhibition at 10 uM incubated for 48 hrs by sulforhodamine B assay; type: functional; details: read-out: GI
NCI/ADR-RES = assay: Antitumor activity against human NCI/ADR-RES cells assessed as cell growth inhibition at 10 uM incubated for 48 hrs by sulforhodamine B assay; type: functional; details: read-out: GI
SW-620 = assay: Antitumor activity against human SW620 cells assessed as cell growth inhibition at 10 uM incubated for 48 hrs by sulforhodamine B assay; details: SW-620, 48 h, read-out: GI
SK-MEL-28 = assay: Antitumor activity against human SK-MEL-28 cells assessed as cell growth inhibition at 10 uM incubated for 48 hrs by sulforhodamine B assay; type: functional; details: read-out: GI
SK-OV-3 = assay: Antitumor activity against human SK-OV-3 cells assessed as cell growth inhibition at 10 uM incubated for 48 hrs by sulforhodamine B assay; type: functional; details: read-out: GI
HL-60(TB) = assay: Antitumor activity against human HL-60(TB) cells assessed as cell growth inhibition at 10 uM incubated for 48 hrs by sulforhodamine B assay; type: functional; details: read-out: GI
NCI-H226 = assay: Antitumor activity against human NCI-H226 assessed as cell growth inhibition at 10 uM incubated for 48 hrs by sulforhodamine B assay; type: functional; details: read-out: GI
PC-3 = assay: Antitumor activity against human PC-3 cells assessed as cell growth inhibition at 10 uM incubated for 48 hrs by sulforhodamine B assay; type: functional; details: read-out: GI
BT-549 = assay: Antitumor activity against human BT-549 cells assessed as cell growth inhibition at 10 uM incubated for 48 hrs by sulforhodamine B assay; type: functional; details: read-out: GI
NCI-H522 = assay: Antitumor activity against human NCI-H522 cells assessed as cell growth inhibition at 10 uM incubated for 48 hrs by sulforhodamine B assay; type: functional; details: read-out: GI
COLO 205 = assay: Antitumor activity against human COLO205 cells assessed as cell growth inhibition at 10 uM incubated for 48 hrs by sulforhodamine B assay; type: functional; details: read-out: GI

## Oc1ccccc1-c1nc2c3ccccc3c3ccccc3c2o1
SN12C
  inhibition of growth at 10 µM: 17%
NCI-H23
  inhibition of growth at 10 µM: 14.5%
UACC-62
  inhibition of growth at 10 µM: 11.6%
OVCAR-3
  inhibition of growth at 10 µM: < 10%
K562
  inhibition of growth at 10 µM: 11.9%
Hs-578T
  inhibition of growth at 10 µM: 10.5%
M14
  inhibition of growth at 10 µM: < 10%
MOLT-4
  inhibition of growth at 10 µM: < 10%
SF-295
  inhibition of growth at 10 µM: < 10%
SF-268
  inhibition of growth at 10 µM: 10.2%
MDA-MB-435
  inhibition of growth at 10 µM: < 10%
ACHN
  inhibition of growth at 10 µM: < 10%
KM12
  inhibition of growth at 10 µM: < 10%
HT-29
  inhibition of growth at 10 µM: < 10%
HCT-15
  inhibition of growth at 10 µM: < 10%
CCRF-CEM
  inhibition of growth at 10 µM: 17.9%
MDA-MB-231
  inhibition of growth at 10 µM: 18.3%
IGROV-1
  inhibition of growth at 10 µM: 25.9%
HOP-92
  inhibition of growth at 10 µM: 16.2%
HCC 2998
  inhibition of growth at 10 µM: < 10%
RXF 393
  inhibition of growth at 10 µM: < 10%
786-0
  inhibition of growth at 10 µM: < 10%
HCT-116
  inhibition of growth at 10 µM: 19.2%
EKVX
  inhibition of growth at 10 µM: 21.2%
SR
  inhibition of growth at 10 µM: 26.3%
A498
  inhibition of growth at 10 µM: < 10%
UO-31
  inhibition of growth at 10 µM: 39%
MDA-MB-468
  inhibition of growth at 10 µM: 17%
MCF7
  inhibition of growth at 10 µM: 37.6%
OVCAR-8
  inhibition of growth at 10 µM: 11%
U-251
  inhibition of growth at 10 µM: 18%
Malme-3M
  inhibition of growth at 10 µM: < 10%
OVCAR-4
  inhibition of growth at 10 µM: 23.6%
NCI-H460
  inhibition of growth at 10 µM: 30.4%
SNB-75
  inhibition of growth at 10 µM: 10.3%
RPMI-8226
  inhibition of growth at 10 µM: 24.5%
SNB-19
  inhibition of growth at 10 µM: < 10%
LOX IMVI
  inhibition of growth at 10 µM: < 10%
NCI/ADR-RES
  inhibition of growth at 10 µM: < 10%
SW-620
  inhibition of growth at 10 µM: 31.6%
SK-MEL-28
  inhibition of growth at 10 µM: < 10%
SK-OV-3
  inhibition of growth at 10 µM: < 10%
HL-60(TB)
  inhibition of growth at 10 µM: 12%
NCI-H226
  inhibition of growth at 10 µM: 14.2%
PC-3
  inhibition of growth at 10 µM: 22.2%
BT-549
  inhibition of growth at 10 µM: < 10%
NCI-H522
  inhibition of growth at 10 µM: < 10%
COLO 205
  inhibition of growth at 10 µM: 14.3%
